The values below come from patent US20190105260A1, “COMPOSITIONS AND METHODS TO PROMOTE WOUND HEALING” (The Regents of the University of California, priority 2016, published 2019).

Data set [1] relates to Db/Db female mice, diabetic model of impaired wound healing. The experiment in a line: In vivo splinted full-thickness excisional wound model, re-epithelialization analysis. Details: species or system mouse. The following applies: daily topical 0.2% fluoxetine or 0.01% timolol; day 12. Here is the method:
Panel B: Histomorphometric analysis of wounds. Representative histology sections for each group were chosen. Following euthanasia of animals, wounds were excised, biopsied and bisected. Wound tissue was fixed in paraformaldehyde for 12-16 hours and then paraffin embedded. Serial 5 μm sections were obtained from the center of the wound and the section with the largest wound bed (as defined by distance between hair follicles) was stained with hemotoxylin and eosin. Images were taken using 10× objective on a Keyance microscope. Panels C-D: Re-epithelialization was determined on sections created as in panel B. Image J analysis software was utilized to divide the re-epithelialized tissue (distance from hair follicle to remaining wound) by the entire original wound surface (as defined as distance between hair follicles). Panel D provides the distribution of data depicted in Panel C. P values were derived using a 2-tailed t-test.
13 week-old Db/Db female mice underwent full-thickness excisional biopsies with 8 mm punch biopsies. Wounds were splinted to prevent contraction. At day 12, animals were sacrificed and wounds were harvested to assess re-epithelialization. Representative histology sections for each group were chosen. Following euthanasia of animals, wounds were excised, biopsied and bisected. Wound tissue was fixed in paraformaldehyde for 12-16 hours and then paraffin embedded. Serial […] sections were obtained from the center of the wound and the section with the largest wound bed (as defined by distance between subcutaneous fat tissue) was stained with hemotoxylin and eosin. Images were taken using 10× objective on a Keyance microscope. (A) Re-epithelialization was determined on sections created. Image J analysis software was utilized to divide the re-epithelialized tissue by the entire original wound surface. (B) Percent of wounds at different stages of re-epithelialization was quantified. Data represented as Mean±SEM. P values were derived using a 2-tailed t-test. N=5/group.
13 week-old Db/Db female mice underwent full-thickness excisional wounding with 8 mm punch biopsy tool. All wounds were splinted to prevent contraction. […] At day 11, animals were sacrificed and wounds were harvested to assess re-epithelialization. Representative histology sections for each group were chosen. Following euthanasia of animals, wounds were excised, biopsied and bisected. Wound tissue was fixed in paraformaldehyde for 12-16 hours and then paraffin embedded. Serial […] sections were obtained from the center of the wound and the section with the largest wound bed (as defined by distance between subcutaneous fat tissue) was stained with hemotoxylin and eosin. Images were taken using 10× objective on a Keyance microscope. Re-epithelialization was determined on sections created. Image J analysis software was utilized to divide the re-epithelialized tissue by the entire original wound surface. Data represented as Mean±SEM. N=5/group.
Diabetic status (blood glucose >300 mg/dl) was confirmed in female Db/Db mice at age 11 weeks. At age 13 weeks, mice underwent hair removal and synchronization of follicle cycling through depilation and shaving. Synchronization was confirmed based on lack of skin pigmentation in included mice. 1 day after synchronization, 13-week-old Db/Db female mice underwent full-thickness excisional wounding using a splinted model as described. Briefly, 8 mm punch biopsies were used to make full-thickness excisional wounds. […]

The conditions of data set [2]: cited from earlier work.
The subject of data set [3] is bone marrow-derived macrophages (BMDMs), M2 polarization. The experiment in a line: In vitro macrophage polarization (RT-PCR, flow cytometry). The following applies: added to fluoxetine; 1 μM Ketanserin, 100 nM NAN-190; 24 hours. The data set is classed as cell-based, mouse. Here is the method:
Bone marrow described macrophages from wild-type C57/B6J mice were harvested and cultured under polarizing conditions towards M0 (no polarization; normal culture medium), M1 (using LPS and IFNγ) or M2 (using IL-4 and IL-13). […] M2 activation status was assessed using RT-PCR (normalized to HSP90) for CD206, Ym-1 and Arg-1. M1 activation status was assessed using TNFα (A, B). C: At day 7 of macrophage maturation, adherent bone marrow derived monocytes in culture were identified with macrophage markers (CD11b and F4/80) using flow cytometry. After 24 hours, CD206 expression was identified in treated group (C). Results were then quantified and reported (D). Data presented as average±SEM. ** p<0.01.
Wild type C57BL/6 male and female mice were used. Bone marrow-derived (BMD) cells were isolated from mouse femurs and tibias. ACK solution (Thermo Fisher catalog 50-983-220) was used for 5 minutes at 37° C. to lyse red blood cells. BMD macrophages (BMDMs) were matured with (20 ng/mL) M-CSF (R&D) for 7 days. On day 7, BMDM phenotype was confirmed with flow cytometry by CD11b and F4/80 markers (Biolegend). Following maturation, BMDMs were either polarized towards M1 lineage with 10 ng/ml LPS (Sigma Aldrich) and 100 ng/ml IFN-g (R&D) or M2 lineage with 20 ng/ml IL-4 (PeproTech) and IL-13 (R&D) in cRPMI (1×RPMI (Cellgro), 10% FBS, 1× sodium pyruvate (GIBCO), 1× penicillin/streptomycin (GIBCO) at 37° C. for 24 hours. Non-polarized BMDMs and M1-polarized BMDMs were used as experimental controls for polarization procedure. M2-polarized BMDMs were co-treated with either PBS or FLX and/or 100 nM NAN-190 or 1 μM Ketanserin. Cells were either collected after 4 hours by scraping and stored in buffer RLT (Qiagen) at −80° C. or were read with flow cytometry after 24 hours and data were appropriately compensated and analyzed by FlowJo.
RT-PCR was performed using PowerUp SYBR Green Master Mix (Thermo/Applied Biosystems). Data was analyzed using the ΔΔCt method and normalized using geometric mean of the housekeeping genes (GAPDH, Hsp90, 18S rRNA). Fold change is shown relative to control groups.
A general note: Flow cytometry measures light scatter and fluorescence of single cells or particles in a stream.

With `CC(C)(C)NC[C@H](O)COc1nsnc1N1CCOCC1` [timolol], the “re-epithelialization compared to PEG vehicle control” value in data set [1] is “increased”.

For the compound `CC(C)(C)NCC(O)COc1cccc2c1CC(O)C(O)C2` (stereo not shown) [Nadolol], the lipid solubility entry in data set [2] is reported as “low”.

`O=C(c1ccc(F)cc1)C1CCN(CCn2c(=O)[nH]c3ccccc3c2=O)CC1` [Ketanserin]: the “effect on fluoxetine-enhanced M2 polarization (CD206+ cells, flow cytometry)” value in data set [3] was “reversed”.

Regarding `COc1ccccc1N1CCN(CCCCN2C(=O)c3ccccc3C2=O)CC1` [NAN190], in data set [3], the “effect on fluoxetine-enhanced M2 polarization (CD206+ cells, flow cytometry)” value is recorded as “reversed”.
